How the values were obtained:
[1] = Compound stability in complete RPMI with 10% human serum (mass spectrometry); type: physicochemical
Procedure: To assess compound stability, at day 1, 1 μM compound 103 or DMSO was added to complete RMPI containing 10% human serum and stored at either 4° C., 22° C. or 37° C. over an 11 day time period. Concentration of compound 103 was assessed at each indicated timepoint and storage temperature by mass spectrometry. Compound 103 was stable for at least 11 days in RPMI medium (FIG. 33).

[2] = test system: TIL from human ovarian, colon and breast cancer tissues; test: Phenotype of TIL expanded in 24 well or GREX10 format (flow cytometry); type: cell-based
Procedure: Initial studies involved TIL expansion with ovarian and CRC tumor tissues (average about 0.5-0.8 g). These were fragmented into multiple pieces (approximately 2 mm^3 in size), and one fragment was added per 24 well plate. […] The wells were then pooled by treatment and total cell numbers were assessed by flow cytometry. Following TIL expansion the phenotypes of the cells were characterized. They were majority CD45RO+ and CD4+ and CD8+.
TIL directly derived from fresh ovarian and colon cancer tissues (fresh, n=8) obtained after 28 days' ex vivo culture of cancer tissue fragments were analyzed by flow cytometry. FIG. 24 provides FACS data showing percentages of central memory(CD45RO+CCR7+) and effector memory (CD45RO+CCR7−) phenotype among CD8+CD45RO+, respectively. FACS results expressed as the mean±SEM. Statistical significance calculated using two-tailed Wilcoxon signed-rank test (*, p<0.05). The CD8 T cells were further characterized by assessing T cell differentiation phenotypic markers; CCR7 and CD45RO. […] This indicates the expansion of a less differentiated, persistent T cell.
TIL directly derived from fresh ovarian, colon and breast cancer tissues (fresh, n=7) obtained after 14 days' ex vivo culture of cancer tissue fragments were analyzed by flow cytometry. FIG. 26 provides FACS data showing percentages of central memory […] phenotype among CD8+CD45RO+, respectively. FACS results were expressed as the mean±SEM.

[3] = test system: human T cells from peripheral blood mononuclear cells; test: Expansion of CMV pp65 reactive T cells from peripheral blood mononuclear cells; type: cell-based; conditions: for Expansion of T cells from PBMC, total cell number relative to IL-2 alone: day 11
Source text: (§1) At day eleven, cells were pooled and counted, and immunophenotyped at day 11 by flow cytometry by measuring expression of lineage (CD4, CD8) and differentiation (including CD45RA, CD45RO, CD95, CCR7, CD62L, TCF1, PD-1, TIM3, LAG3) markers.

[4] = test system: human T cells from peripheral blood mononuclear cells; test: Flow cytometry immunophenotyping of T cells expanded from donor PBMC; type: cell-based; conditions: for CD4 TCM, percentage of total cell number / CD4 TEM, percentage of total cell number / CD4 TSCM, percentage of total cell number / CD8 TCM, percentage of total cell number / CD8 TEM, percentage of total cell number / CD8 TSCM, percentage of total cell number: donor PBMC, day 11
Source text: as §1
T lymphocytes were defined based on lineage and differentiation marker expression according to the developmental model (Restifo, Blood, 124:476-477, 2014), as shown in Table 4.

[5] = test system: human tumor-infiltrating lymphocytes (TIL); test: Rapid Expansion Protocol (REP) of TIL; type: cell-based; conditions: day 42 (Pre-REP and REP)
Procedure: PBMC, OKT3 antibody (30 ng/mL), complete medium (“CM”), AIM V media (GIBCO/BRL), and TIL effector cells were combined, mixed, and aliquoted to a 75 cm^2 tissue culture flask. Flasks were incubated upright at 37° C. in 5% CO2. […] About 14 days after initiation of the REP, cells were harvested and cryopreserved for future experimental analysis.

[6] = 6000 IU IL-2 + 1 uM compound 103, 28 days, 24 well

## C[C@@H]1CN(Cc2cc3c(c(C(F)(F)F)c2)CN(c2cccc(C4(Cc5nncn5C)COC4)c2)C3=O)CCC1(F)F [compound 103]
[1]; 1 μM, complete RPMI with 10% human serum, 4° C., 22° C. or 37° C.
  Stability in RPMI medium: at least 11 days
[1]; 4° C.-37° C., 11 day period, FIG. 33
  Stability at multiple temperatures: stable
[2]; [6]
  % CD4 T cells vs IL-2 alone: decrease in the % of CD4
  CD8 T cells vs IL-2 alone: corresponding increase in CD8
[2]; IL-2 + compound 103, 28 days, FIG. 24
  Central memory T cells (CCR7+CD45RO+) among CD8 vs IL-2 alone: significant increase of central memory T cells
[2]; IL-2 + compound 103, GREX 10, 14 days
  CD8 T cell expansion (% and total numbers): increased expansion of CD8 T cells
[3]; Cbl inhibitor in the absence of IL-2
  Expansion of T cells: considerable expansion of T cells
[3]; Donor 1, 0.1 μM Cbl-i
  Expansion of T cells from PBMC, total cell number relative to IL-2 alone: 12%
[3]; Donor 1, 1.0 μM Cbl-i
  Expansion of T cells from PBMC, total cell number relative to IL-2 alone: 12%
[3]; Donor 1, 10 μM Cbl-i
  Expansion of T cells from PBMC, total cell number relative to IL-2 alone: 44%
[3]; Donor 1, IL-2 + 0.1 μM Cbl-i
  Expansion of T cells from PBMC, total cell number relative to IL-2 alone: 614%
[3]; Donor 1, IL-2 + 1.0 μM Cbl-i
  Expansion of T cells from PBMC, total cell number relative to IL-2 alone: 1007%
[3]; Donor 1, IL-2 + 10 μM Cbl-i
  Expansion of T cells from PBMC, total cell number relative to IL-2 alone: 898%
[3]; Donor 2, 0.1 μM Cbl-i
  Expansion of T cells from PBMC, total cell number relative to IL-2 alone: 70%
[3]; Donor 2, 1.0 μM Cbl-i
  Expansion of T cells from PBMC, total cell number relative to IL-2 alone: 95%
[3]; Donor 2, 10 μM Cbl-i
  Expansion of T cells from PBMC, total cell number relative to IL-2 alone: 45%
[3]; Donor 2, IL-2 + 0.1 μM Cbl-i
  Expansion of T cells from PBMC, total cell number relative to IL-2 alone: 2059%
[3]; Donor 2, IL-2 + 1.0 μM Cbl-i
  Expansion of T cells from PBMC, total cell number relative to IL-2 alone: 170%
[3]; Donor 2, IL-2 + 10 μM Cbl-i
  Expansion of T cells from PBMC, total cell number relative to IL-2 alone: 2161%
[3]; Donor 3, 0.1 μM Cbl-i
  Expansion of T cells from PBMC, total cell number relative to IL-2 alone: 175%
[3]; Donor 3, 1.0 μM Cbl-i
  Expansion of T cells from PBMC, total cell number relative to IL-2 alone: 75%
[3]; Donor 3, 10 μM Cbl-i
  Expansion of T cells from PBMC, total cell number relative to IL-2 alone: 38%
[3]; Donor 3, IL-2 + 0.1 μM Cbl-i
  Expansion of T cells from PBMC, total cell number relative to IL-2 alone: 3622%
[3]; Donor 3, IL-2 + 1.0 μM Cbl-i
  Expansion of T cells from PBMC, total cell number relative to IL-2 alone: 2145%
[3]; Donor 3, IL-2 + 10 μM Cbl-i
  Expansion of T cells from PBMC, total cell number relative to IL-2 alone: 1151%
[4]; 1 μM Cbl inhibitor alone
  Percentage of CD8+ cells vs IL-2 alone: higher percentages of CD8+ cells
[4]; IL-2 in combination with 0.1 or 0.5 μM of Cbl inhibitor
  Percentage of CD8+ cells in culture: highest percentage of CD8+ cells
[4]; 0.1 μM Cbl-i
  CD4 TCM, percentage of total cell number: 53.1%
  CD4 TEM, percentage of total cell number: 23.9%
  CD4 TSCM, percentage of total cell number: 12%
  CD8 TCM, percentage of total cell number: 50.7%
  CD8 TEM, percentage of total cell number: 14.2%
  CD8 TSCM, percentage of total cell number: 17.1%
[4]; 1.0 μM Cbl-i
  CD4 TCM, percentage of total cell number: 55.3%
  CD4 TEM, percentage of total cell number: 19.3%
  CD4 TSCM, percentage of total cell number: 7.27%
  CD8 TCM, percentage of total cell number: 61.1%
  CD8 TEM, percentage of total cell number: 12.9%
  CD8 TSCM, percentage of total cell number: 7.29%
[4]; 10 μM Cbl-i
  CD4 TCM, percentage of total cell number: 47.3%
  CD4 TEM, percentage of total cell number: 23.3%
  CD4 TSCM, percentage of total cell number: 1.37%
  CD8 TCM, percentage of total cell number: 34.2%
  CD8 TEM, percentage of total cell number: 9.23%
  CD8 TSCM, percentage of total cell number: 10.8%
[4]; IL-2 + 0.1 μM Cbl-i
  CD4 TCM, percentage of total cell number: 13.9%
  CD4 TEM, percentage of total cell number: 29.7%
  CD4 TSCM, percentage of total cell number: 8.53%
  CD8 TCM, percentage of total cell number: 47.8%
  CD8 TEM, percentage of total cell number: 18.3%
  CD8 TSCM, percentage of total cell number: 4.2%
[4]; IL-2 + 1.0 μM Cbl-i
  CD4 TCM, percentage of total cell number: 16.8%
  CD4 TEM, percentage of total cell number: 28.4%
  CD4 TSCM, percentage of total cell number: 1.98%
  CD8 TCM, percentage of total cell number: 37.8%
  CD8 TEM, percentage of total cell number: 41.4%
  CD8 TSCM, percentage of total cell number: 0.23%
[4]; IL-2 + 10 μM Cbl-i
  CD4 TCM, percentage of total cell number: 24.3%
  CD4 TEM, percentage of total cell number: 25.8%
  CD4 TSCM, percentage of total cell number: 2.69%
  CD8 TCM, percentage of total cell number: 49%
  CD8 TEM, percentage of total cell number: 10.6%
  CD8 TSCM, percentage of total cell number: 9.36%
[4]; donor PBMCs, FIGS. 2A and 2B
  Selective expansion of CD8+ T lymphocytes: selectively expand CD8+ T lymphocytes
[5]; TIL1 (ovary), 0.1 μM Cbl-i
  Expansion of TIL (REP), total cell number relative to IL-2 alone: 40%
[5]; TIL1 (ovary), 1.0 μM Cbl-i
  Expansion of TIL (REP), total cell number relative to IL-2 alone: 42%
[5]; TIL1 (ovary), 10 μM Cbl-i
  Expansion of TIL (REP), total cell number relative to IL-2 alone: 32%
[5]; TIL1 (ovary), IL-2 + 0.1 μM Cbl-i
  Expansion of TIL (REP), total cell number relative to IL-2 alone: 50%
[5]; TIL1 (ovary), IL-2 + 1.0 μM Cbl-i
  Expansion of TIL (REP), total cell number relative to IL-2 alone: 52%
[5]; TIL1 (ovary), IL-2 + 10 μM Cbl-i
  Expansion of TIL (REP), total cell number relative to IL-2 alone: 49%
[5]; TIL3 (ovary), 0.1 μM Cbl-i
  Expansion of TIL (REP), total cell number relative to IL-2 alone: 127%
[5]; TIL3 (ovary), 1.0 μM Cbl-i
  Expansion of TIL (REP), total cell number relative to IL-2 alone: 150%
[5]; TIL3 (ovary), 10 μM Cbl-i
  Expansion of TIL (REP), total cell number relative to IL-2 alone: 107%
[5]; TIL3 (ovary), IL-2 + 0.1 μM Cbl-i
  Expansion of TIL (REP), total cell number relative to IL-2 alone: 193%
[5]; TIL3 (ovary), IL-2 + 1.0 μM Cbl-i
  Expansion of TIL (REP), total cell number relative to IL-2 alone: 207%
[5]; TIL3 (ovary), IL-2 + 10 μM Cbl-i
  Expansion of TIL (REP), total cell number relative to IL-2 alone: 197%
[5]; TIL4 (colon), 0.1 μM Cbl-i
  Expansion of TIL (REP), total cell number relative to IL-2 alone: 80%
[5]; TIL4 (colon), 1.0 μM Cbl-i
  Expansion of TIL (REP), total cell number relative to IL-2 alone: 80%
[5]; TIL4 (colon), 10 μM Cbl-i
  Expansion of TIL (REP), total cell number relative to IL-2 alone: 107%
[5]; TIL4 (colon), IL-2 + 0.1 μM Cbl-i
  Expansion of TIL (REP), total cell number relative to IL-2 alone: 167%
[5]; TIL4 (colon), IL-2 + 1.0 μM Cbl-i
  Expansion of TIL (REP), total cell number relative to IL-2 alone: 194%
[5]; TIL4 (colon), IL-2 + 10 μM Cbl-i
  Expansion of TIL (REP), total cell number relative to IL-2 alone: 240%
[5]; TIL6 (ovary), 0.1 μM Cbl-i
  Expansion of TIL (REP), total cell number relative to IL-2 alone: 51%
[5]; TIL6 (ovary), 1.0 μM Cbl-i
  Expansion of TIL (REP), total cell number relative to IL-2 alone: 63%
[5]; TIL6 (ovary), 10 μM Cbl-i
  Expansion of TIL (REP), total cell number relative to IL-2 alone: 49%
[5]; TIL6 (ovary), IL-2 + 0.1 μM Cbl-i
  Expansion of TIL (REP), total cell number relative to IL-2 alone: 206%
[5]; TIL6 (ovary), IL-2 + 1.0 μM Cbl-i
  Expansion of TIL (REP), total cell number relative to IL-2 alone: 180%
[5]; TIL6 (ovary), IL-2 + 10 μM Cbl-i
  Expansion of TIL (REP), total cell number relative to IL-2 alone: 168%
